Laboratory results taken from the supplement of paper PMC10307832.

compound: C[C@]1(c2nc3c(C(N)=O)cccc3[nH]2)CCCN1 [Veliparib] + O=C(CCCCCCC(=O)Nc1ccccc1)NO [Vorinostat] (partner 1 µM); experiment: relative viability (nuclei count vs DMSO), 5 days (fraction); higher = more cells survive; settings: first compound 0.02 µM
How it was run: (§1)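 Values are medians from duplicate plates. Each reflects relative viability, defined as the nuclei count of treated wells over that of vehicle wells. Lung cancer cell lines in 1536-well plates were pin-tool dosed one day after seeding with one drug alone or with a fixed anchor-drug dose plus five library-drug doses (not always all listed) in √10 steps, then fixed, stained and imaged at 4× after 5 days.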

Cell Line | relative viability
LXF-289 | 0.809
LC-2-ad | 0.434
NCI-H1651 | 0.557
COR-L23 | 0.604
HCC-827 | 0.764
LCLC-103H | 0.846
RERF-LC-KJ | 0.51
NCI-H3122 | 0.906
BEN | 0.544
UMC-11 | 0.432
LCLC-97TM1 | 0.455
NCI-H2085 | 0.601
A-427 | 0.813
NCI-H838 | 0.792
201T | 0.922
NCI-H2228 | 0.585
LOU-NH91 | 0.846
NCI-H1666 | 0.988
NCI-H650 | 0.29
ChaGo-K-1 | 0.555
NCI-H647 | 0.584
NCI-H2126 | 0.811
NCI-H1755 | 0.758
PC-3 [JPC-3] | 0.68
NCI-H2087 | 0.504
NCI-H441 | 0.75

same assay, conditions: first compound 0.06325 µM

Cell Line | relative viability
LXF-289 | 0.812
LC-2-ad | 0.656
NCI-H1651 | 0.551
COR-L23 | 0.353
HCC-827 | 0.834
LCLC-103H | 0.726
RERF-LC-KJ | 0.61
NCI-H3122 | 1.05
BEN | 0.615
UMC-11 | 0.354
LCLC-97TM1 | 0.797
NCI-H2085 | 0.778
A-427 | 0.867
NCI-H838 | 0.692
201T | 0.954
NCI-H2228 | 0.734
LOU-NH91 | 0.842
NCI-H1666 | 0.963
NCI-H650 | 0.333
ChaGo-K-1 | 0.735
NCI-H1993 | 0.775
NCI-H647 | 0.606
NCI-H2126 | 0.777
NCI-H1755 | 0.774
NCI-H2087 | 0.747
NCI-H441 | 0.552

same assay, conditions: first compound 0.2 µM

Cell Line | relative viability
LXF-289 | 0.743
LC-2-ad | 0.717
NCI-H1651 | 0.513
COR-L23 | 0.408
HCC-827 | 0.793
LCLC-103H | 0.819
RERF-LC-KJ | 0.679
NCI-H3122 | 0.972
BEN | 0.62
UMC-11 | 0.365
LCLC-97TM1 | 0.849
NCI-H2085 | 0.753
A-427 | 0.867
NCI-H838 | 0.71
201T | 0.929
NCI-H2228 | 0.585
LOU-NH91 | 0.919
NCI-H1666 | 1.14
NCI-H650 | 0.397
ChaGo-K-1 | 0.662
NCI-H1993 | 0.966
NCI-H647 | 0.385
NCI-H2126 | 0.893
NCI-H1755 | 0.725
PC-3 [JPC-3] | 1.02
NCI-H2087 | 0.875
NCI-H441 | 0.63

same assay, conditions: first compound 0.6325 µM

Cell Line | relative viability
LXF-289 | 0.655
LC-2-ad | 0.655
NCI-H1651 | 0.464
COR-L23 | 0.445
HCC-827 | 0.671
LCLC-103H | 0.749
RERF-LC-KJ | 0.665
NCI-H3122 | 0.929
BEN | 0.614
UMC-11 | 0.381
LCLC-97TM1 | 0.632
NCI-H2085 | 0.763
A-427 | 0.842
NCI-H838 | 0.652
201T | 1.16
NCI-H2228 | 0.455
LOU-NH91 | 0.822
NCI-H1666 | 0.997
NCI-H650 | 0.457
ChaGo-K-1 | 0.65
NCI-H1993 | 0.804
NCI-H647 | 0.366
NCI-H2126 | 0.785
NCI-H1755 | 0.723
PC-3 [JPC-3] | 1.03
NCI-H2087 | 0.645
NCI-H441 | 0.695

same assay, conditions: first compound 2 µM

Cell Line | relative viability
LXF-289 | 0.794
LC-2-ad | 0.788
NCI-H1651 | 0.504
COR-L23 | 0.354
HCC-827 | 0.746
LCLC-103H | 0.77
RERF-LC-KJ | 0.64
NCI-H3122 | 1.07
BEN | 0.593
UMC-11 | 0.394
LCLC-97TM1 | 0.637
NCI-H2085 | 0.756
A-427 | 0.934
NCI-H838 | 0.725
201T | 0.928
NCI-H2228 | 0.469
LOU-NH91 | 0.945
NCI-H1666 | 1.05
NCI-H650 | 0.432
ChaGo-K-1 | 0.74
NCI-H1993 | 0.688
NCI-H647 | 0.427
NCI-H2126 | 0.803
NCI-H1755 | 0.714
PC-3 [JPC-3] | 0.922
NCI-H2087 | 0.726
NCI-H441 | 0.83

compound: COC1=CC=C(C=C1)CN2C=CC3=C2C=C(C=C3)C(=O)NO + Nc1nc2[nH]cc(CCc3ccc(C(=O)N[C@@H](CCC(=O)O)C(=O)O)cc3)c2c(=O)[nH]1 [Pemetrexed] (partner 0.2 µM); experiment: as above; settings: first compound 0.08 µM
How it was run: as §1

Cell Line | relative viability
LC-2-ad | 0.283
NCI-H1651 | 0.561
COR-L23 | 0.206
HCC-827 | 0.228
LCLC-103H | 0.475
RERF-LC-KJ | 0.442
NCI-H3122 | 0.2
BEN | 0.729
UMC-11 | 0.568
NCI-H2085 | 1.07
A-427 | 0.923
NCI-H838 | 0.232
201T | 0.314
NCI-H2228 | 0.311
NCI-H1666 | 0.761
NCI-H650 | 0.864
NCI-H1993 | 0.542
NCI-H647 | 0.142
NCI-H2126 | 0.669
NCI-H1755 | 0.421
PC-3 [JPC-3] | 1.04
NCI-H2087 | 0.575
NCI-H441 | 0.26

same assay, conditions: first compound 0.253 µM

Cell Line | relative viability
LXF-289 | 0.937
LC-2-ad | 0.292
NCI-H1651 | 0.523
COR-L23 | 0.2
HCC-827 | 0.27
LCLC-103H | 0.452
RERF-LC-KJ | 0.502
NCI-H3122 | 0.208
BEN | 0.615
UMC-11 | 0.854
LCLC-97TM1 | 0.192
NCI-H2085 | 0.951
NCI-H838 | 0.27
201T | 0.349
NCI-H2228 | 0.347
LOU-NH91 | 0.417
NCI-H1666 | 0.914
NCI-H650 | 1.03
ChaGo-K-1 | 0.266
NCI-H1993 | 0.529
NCI-H647 | 0.154
NCI-H2126 | 0.73
NCI-H1755 | 0.379
NCI-H2087 | 0.56
NCI-H441 | 0.264

same assay, conditions: first compound 0.8 µM

Cell Line | relative viability
LXF-289 | 0.872
LC-2-ad | 0.307
NCI-H1651 | 0.587
COR-L23 | 0.192
HCC-827 | 0.262
LCLC-103H | 0.482
RERF-LC-KJ | 0.482
NCI-H3122 | 0.195
BEN | 0.921
UMC-11 | 0.823
LCLC-97TM1 | 0.182
NCI-H2085 | 1.02
A-427 | 0.965
NCI-H838 | 0.244
201T | 0.322
NCI-H2228 | 0.336
LOU-NH91 | 0.346
NCI-H1666 | 0.84
NCI-H650 | 0.89
ChaGo-K-1 | 0.275
NCI-H1993 | 0.648
NCI-H647 | 0.149
NCI-H2126 | 0.672
NCI-H1755 | 0.443
PC-3 [JPC-3] | 1.14
NCI-H2087 | 0.669
NCI-H441 | 0.273

same assay, conditions: first compound 2.53 µM

Cell Line | relative viability
LXF-289 | 0.907
LC-2-ad | 0.303
NCI-H1651 | 0.512
COR-L23 | 0.217
HCC-827 | 0.266
LCLC-103H | 0.414
RERF-LC-KJ | 0.501
NCI-H3122 | 0.209
BEN | 0.725
UMC-11 | 0.793
LCLC-97TM1 | 0.191
NCI-H2085 | 0.941
A-427 | 0.907
NCI-H838 | 0.234
201T | 0.333
NCI-H2228 | 0.343
LOU-NH91 | 0.372
NCI-H1666 | 0.918
NCI-H650 | 0.892
ChaGo-K-1 | 0.262
NCI-H1993 | 0.603
NCI-H647 | 0.166
NCI-H2126 | 0.706
NCI-H1755 | 0.437
PC-3 [JPC-3] | 1.21
NCI-H2087 | 0.599
NCI-H441 | 0.278

same assay, conditions: first compound 8 µM

Cell Line | relative viability
LXF-289 | 0.881
LC-2-ad | 0.261
NCI-H1651 | 0.56
COR-L23 | 0.197
HCC-827 | 0.253
LCLC-103H | 0.425
RERF-LC-KJ | 0.521
NCI-H3122 | 0.193
BEN | 0.661
UMC-11 | 0.784
LCLC-97TM1 | 0.144
NCI-H2085 | 0.948
A-427 | 0.842
NCI-H838 | 0.257
201T | 0.324
NCI-H2228 | 0.298
LOU-NH91 | 0.391
NCI-H1666 | 0.87
NCI-H650 | 0.888
ChaGo-K-1 | 0.255
NCI-H1993 | 0.549
NCI-H647 | 0.231
NCI-H2126 | 0.649
NCI-H1755 | 0.512
PC-3 [JPC-3] | 1.12
NCI-H2087 | 0.535
NCI-H441 | 0.261

compound: C[C@]1(c2nc3c(C(N)=O)cccc3[nH]2)CCCN1 [Veliparib] + CC(C)C[C@H](NC(=O)[C@H](Cc1ccccc1)NC(=O)c1cnccn1)B(O)O [Bortezomib] (partner 0.002 µM); experiment: as above; settings: first compound 0.02 µM
How it was run: as §1

Cell Line | relative viability
LXF-289 | 0.997
